According to patent US20030229451A1, “Methods and systems for analyzing complex biological systems” (priority 2001, published 2003):

Tests used:
Arabidopsis thaliana [1] = test: MOA1 biochemical (metabolite) profiling by LC-MS and GC-MS
Arabidopsis thaliana [2] = test: MOA1 gene expression profiling (22,000 gene array); details: for Regulated Genes: Down / Regulated Genes: Up: 1 hr, p < 0.5; for No. of Lethal Genes Altered: genes essential for plant growth and development
[3] = tested on: Arabidopsis thaliana plants; test: SOA1 phenotypic analysis of herbicide-treated Arabidopsis (MIC, Tmic, leaf traits); assay type: in vivo; details: for characteristic morphological symptoms: herbicide-treated Arabidopsis; for leafCurling Dev. / leafTwisting Dev. / leafWidth Dev. / matureLeafAnthocyanins Dev. / matureLeafChlorosis Dev. / matureLeafNecrosis Dev. / newLeafAnthocyanins Dev. / newLeafChlorosis Dev. / newLeafNecrosis Dev. / pointedLeaves Dev.: numeric value standardized to mock treated; for tMic Dev.: time to full range of symptoms at MIC, coded
Magnaporthe grisea = assay type: cell-based
[4] = tested on: Saccharomyces cerevisiae wild type strain BY4743; test: AF1 metabolite analysis (GC-MS, LC-MS) of yeast cells treated with antifungal drugs; assay type: cell-based; details: P < 0.1; 2x MIC, two hours
[5] = tested on: Saccharomyces cerevisiae wild type strain BY4743; test: AF1 combined gene expression and metabolite mapping to reactions and pathways (KEGG); assay type: cell-based
From the text: The pathway score indicates how meaningful the mapping is, or how likely it is to be correctly indicative of the pathway involved in the perturbation under examination. The method provides a pathway score based on perturbation levels of genes and/or compounds and the information content of each gene and/or compound in the pathway, i.e., a pathway score indicates the extent to which other pathways are mapped to a gene/compound. For example, imagine that two genes are perturbed in a particular experiment. One gene maps to only one pathway, giving a high degree of probability that the perturbed pathway is the one identified in the mapping. The second gene maps to three pathways. In the later example, there is only one-third the probability that the pathway identified in the mapping is the one perturbed. The present invention provides a method for calculating the pathway scores, so that more weight is given to a score of a gene or compound that maps to only one pathway than to a score of a gene or compound that maps to multiple pathways. […] Where n=the total number of genes in the pathway; ipath—count=the number of pathways containing a gene; and j=the number of genes in the pathway that are perturbed. Another factor to be considered when weighting a pathway score is the degree of perturbation. Degree of perturbation can be calculated, for example, based on a number of standard deviations from a norm, and included in an equation such as the one shown above, so that not only the number of pathways is taken into account, but also accounts for the amount of gene transcript or compound present as compared to a control. The data were then combined to determine the number of reactions showing an enzyme and at least one compound perturbed, and to determine the number of pathways having at least one enzyme and one perturbed compound perturbed. The results of the analysis are represented in Tables 16 and 17, and were difficult to interpret, illustrating that the ability to draw conclusions from compound mapping to pathways is limited when absent additional data.

[6] = tested on: N-starved Arabidopsis plants; details: nitrate addition to N-starved plants; cited from earlier work

Structure (SMILES) | Number of Metabolites Changed: (unknown #) (Arabidopsis thaliana [1]; 20 min, p < 0.05) | Number of Metabolites Changed: Total # (Arabidopsis thaliana [1]; 20 min, p < 0.05) | Number of Metabolites Changed: (unknown #) (Arabidopsis thaliana [1]; 20 min, p < 0.11) | Number of Metabolites Changed: Total # (Arabidopsis thaliana [1]; 20 min, p < 0.11) | Number of Metabolites Changed: (unknown #) (Arabidopsis thaliana [1]; 1 hr, p < 0.05) | Number of Metabolites Changed: Total # (Arabidopsis thaliana [1]; 1 hr, p < 0.05) | Number of Metabolites Changed: (unknown #) (Arabidopsis thaliana [1]; 1 hr, p < 0.11) | Number of Metabolites Changed: Total # (Arabidopsis thaliana [1]; 1 hr, p < 0.11) | characteristic morphological symptoms [3] | leafCurling Dev. [3] | leafTwisting Dev. [3] | leafWidth Dev. [3] | matureLeafAnthocyanins Dev. [3] | matureLeafChlorosis Dev. [3] | matureLeafNecrosis Dev. [3] | newLeafAnthocyanins Dev. [3] | newLeafChlorosis Dev. [3] | newLeafNecrosis Dev. [3] | pointedLeaves Dev. [3] | tMic Dev. [3] | further results
COC(=O)NS(=O)(=O)c1ccc(N)cc1 [Asulam] | 3 | 9 | 5 | 14 | 7 | 10 | 11 | 18 | – | – | – | – | – | – | – | – | – | – | – | – | Regulated Genes: Down (Arabidopsis thaliana [2]): 7; Regulated Genes: Up (Arabidopsis thaliana [2]): 80; No. of Lethal Genes Altered (Arabidopsis thaliana [2]): 5
CCNc1nc(Cl)nc(NC(C)C)n1 [Atrazine] | 4 (4) | 4 (4) | 8 | 11 | 8 | 17 | 24 | 49 | rapid and widespread leaf necrosis | 1 | 0 | −1 | 0 | 1 | 4 | 0 | 1 | 4 | 1 | 1 | –
CC(C)N1C(=O)c2ccccc2NS1(=O)=O [Bentazon] | 3 | 9 | 6 | 10 | 9 | 11 | 14 | 19 | rapid and widespread leaf necrosis | 2 | 0 | −2 | 0 | 2 | 4 | 0 | 2 | 4 | 1 | 1 | –
COc1nc(C)nc(NC(=O)NS(=O)(=O)c2ccccc2Cl)n1 [Chlorsulfuron] | 4 | 9 | 6 | 15 | 3 | 5 | 13 | 23 | anthocyanin accumulation in the older leaves accompanied by chlorosis of the newly emerging leaves | 1 | 1 | −1 | 3 | 2 | 0 | 0 | 2 | 0 | 0 | 2 | Regulated Genes: Down (Arabidopsis thaliana [2]): 109; Regulated Genes: Up (Arabidopsis thaliana [2]): 97; No. of Lethal Genes Altered (Arabidopsis thaliana [2]): 8
O=C(O)CNCP(=O)(O)O [Glyphosate] | 2 | 4 | 9 | 13 | 9 | 16 | 24 | 46 | anthocyanin accumulation in the older leaves accompanied by chlorosis of the newly emerging leaves | 0 | 0 | 0 | 3 | 1 | 3 | 1 | 2 | 0 | 1 | 2 | tyrosine level (Arabidopsis thaliana [1]; relative to the control): decreased; growth results for Tiers 3 and 4 compared to Unknown 4 (Magnaporthe grisea; 250 μg/ml): nearly identical; growth inhibition of M. grisea (Magnaporthe grisea; 1.0 mg/ml): remediated by inclusion of aromatic amino acids
CC(C)C1(C)N=C(c2ncccc2C(=O)O)NC1=O (centres unmarked) [Imazapyr] | 2 | 5 | 3 | 9 | 6 | 8 | 10 | 14 | anthocyanin accumulation in the older leaves accompanied by chlorosis of the newly emerging leaves | 0 | 0 | 0 | 2 | 0 | 0 | 0 | 2 | 0 | 0 | 2 | –
CC(=O)N1CCN(c2ccc(OCC3COC(Cn4ccnc4)(c4ccc(Cl)cc4Cl)O3)cc2)CC1 (centres unmarked) [Ketoconazole] | – | – | – | – | – | – | – | – | – | – | – | – | – | – | – | – | – | – | – | – | # Compounds perturbed [4]: 15; # Reactions Having an Enzyme and at Least One Compound Perturbed [5]: 21; Number Of Pathways Having at Least One Enzyme and One Compound Perturbed (# Reactions) [5]: 24
CCc1cccc(C)c1N(C(=O)CCl)C(C)COC (centres unmarked) [Metolachlor] | 25 | 38 | 34 | 54 | 11 | 18 | 22 | 45 | – | 2 | 1 | −1 | 0 | 0 | 3 | 0 | 0 | 3 | 1 | 2 | –
O=C(O)c1ccccc1C(=O)Nc1cccc2ccccc12 [Naptalam] | 11 | 28 | 16 | 39 | 9 | 13 | 23 | 46 | – | – | – | – | – | – | – | – | – | – | – | – | Regulated Genes: Down (Arabidopsis thaliana [2]): 47; Regulated Genes: Up (Arabidopsis thaliana [2]): 50; No. of Lethal Genes Altered (Arabidopsis thaliana [2]): 3
O=[N+]([O-])O [Nitrate] | – | – | – | – | – | – | – | – | – | – | – | – | – | – | – | – | – | – | – | – | Nitrate Regulation of Glutamate synthetase [6]: ↑; Nitrate Regulation of Glutamine synthetase (2) [6]: ↑; Nitrate Regulation of MADs Box (2) [6]: ↓; Nitrate Regulation of MYB transcription factor [6]: ↑; Nitrate Regulation of Malate Dehydrogenase [6]: ↑; Nitrate Regulation of Nitrate transporter [6]: ↑; Nitrate Regulation of Phosphate transporter [6]: ↑; Nitrate Regulation of Transaldolase [6]: ↑; Nitrate Regulation of Transketolase [6]: ↑
C[n+]1ccc(-c2cc[n+](C)cc2)cc1 [Paraquat] | 5 | 9 | 9 | 14 | 15 | 22 | 31 | 50 | rapid and widespread leaf necrosis | 2 | 0 | −1 | 0 | 1 | 4 | 0 | 1 | 4 | 1 | 2 | –
